We go through one sequence from patent US5891848A, “Peptide fragments” (Nippon Zoki Pharmaceutical Co., Ltd., priority 1995, dated 1999).

Assay [1] deals with neuronal death in the CA1 subfields of the hippocampus. As to the kind of experiment: Protective effect on cerebral neurons after ischemic insult (common carotid artery occlusion). The format is in vivo, Wister-strain rat. As to conditions: continuous intracerebroventricular infusion 850 μg/ml; carotid occlusion 15 minutes; histology five days after ischemia; 4 rats/group. On the procedure:
Additionally, the effects of the peptides of the present invention on neuronal death in the CA1 subfields of the hippocampus were tested as follows:
The peptide fragment of the present invention, the 1-29 amino acid residue peptide fragment of bovine aFGF in which Cys, an amino acid at the 16-position, was substituted with Ala or the 1-29 amino acid residue peptide fragment of bovine aFGF in which Cys, an amino acid at the 16-position, was substituted with Ser, was administered by continuous intracerebroventricular infusion (850 μg/ml. respectively) into the lateral cerebral ventricles of Wister-strain rat (250-300 g. 4 rats/a group) and their common carotid arteries were occluded for 15 minutes to induce ischemic insult. Five days after ischemia, the rats were deeply anesthetized with sodium pentobarbital and transcardially perfused. Then, the brains were frozen and cut coronally in 20 μm sections by microtomy, and stained by Nissl bodies. The sections were examined by histological analysis. As a result of the analyses, the protecting effect of the peptide of the present invention on neuronal death in the CA1 subfields of the hippocampus was observed (Ala-substituted peptide; 3/4 rats, Ser-substituted peptide; 4/4 rats).

The test system of assay [2] is senility-accelerated mice (SAM-P/8 strain). In words: Water maze task (Morris' water maze task). The format is in vivo, mouse.
Description: A platform was placed at 1 cm under the water surface in a circular swimming pool for the experiment and then fine Styrofoam beads were uniformly sprinkled onto the water surface so that a mouse was unable to recognize the platform. Any hint to the mouse in the space around the device (such as persons in charge of the experiment, table, fluorescent light and machines for the experiment) was always kept constant during the experimental period. Four starting points were randomly selected, a mouse was placed into the water, turning its head to the wall of the pool, and its diving time until it escaped to the platform was measured. When the mouse climbed up to the platform, it was left as it was for 15 seconds. […] The case from one starting point was defined as one trial and four trials were done every ten minutes and defined as one block. Four blocks were carried out in total every other day. Senility-accelerated mice (SAM-P/8) which were not administered any compounds of the present invention were used as a control. […] After the above-menfioned four blocks were conducted, the platform was removed, the mouse was permitted to swim for a certain period, and the time for swimming in each of the four areas was measured. […] Therefore, the learning and remembering abilities could be determined measuring the staying time in each of the four areas.
Assay [3] shares this test system. As to the kind of experiment: Passive avoidance learning test. The format is in vivo, mouse. As to conditions: SAM-P/8, sixth month after birth; s.c. once a week from third week after birth; group 1 150 μg/kg/day, group 2 80 μg/kg/day; test trial 24 hours after acquisition trial; compared to control (SAM-P/8); FIG. 1.
Protocol: In a passive avoidance learning test, remembering ability of senility-accelerated mice of the SAM-P/8 strain decreases from the third month from birth. The effect of the peptide of the present invention for improving said learning disability was investigated. Thus, a mouse was placed in front of a dark box and its ability to remember what it learned was measured using the time it took to come into the box as an index. Electric current was turned on in the dark box after the mouse came into the box so that an electric shock was applied. […] The test trial was conducted 24 hours after the acquisition trial.
The peptide of the present invention was subcutaneously injected once a week since the third week after birth and its effect of improving the passive avoiding ability which was lowered in SAM-P/8 was investigated.

No end group written: not given here.

With FNLPLGNYKKPKLLYASNGGTFLRILPDG, in assay [1], the “protecting effect on neuronal death in the CA1 subfields of the hippocampus observed” value is recorded as 3/4. Besides, in assay [2] (SAM-P/8, ninth month from birth, dosing as in passive avoidance test, compared to the decrease for control (SAM-P/8), FIG. 2), the “diving time (latency) until escape to the platform, Block 1 to Block 4” value is “unexpectedly decreased”. In addition, in assay [2] (SAM-P/8, platform removed after four blocks, compared to control (SAM-P/8), t-test p<0.001, FIG. 3), the “staying time in area 3, where the platform was located” value is “unexpectedly higher”. In addition, the “latency (seconds): time until the mouse came into the dark box in the test trial” value in assay [3] is given as “unexpectedly higher”.
